Assay results as given in PubChem BioAssay (NCI).
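Each compound was tested at five concentrations against cells in 96-well plates for 48 hours. The concentration for full growth arrest is given as TGI.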

Columns and labels:
Assay in all cases: NCI tumour cell line growth inhibition, 48 h
NCI-H460 lung = system: NCI-H460 lung
SK-MEL-2 melanoma = system: SK-MEL-2 melanoma
SK-MEL-5 melanoma = system: SK-MEL-5 melanoma
HOP-92 NSCLC = system: HOP-92 NSCLC
A549 NSCLC = system: A549 NSCLC
OVCAR-3 ovarian = system: OVCAR-3 ovarian
LOX IMVI melanoma = system: LOX IMVI melanoma
SNB-78 CNS = system: SNB-78 CNS
COLO 205 colon = system: COLO 205 colon
DMS 114 small cell lung = system: DMS 114 small cell lung
HT29 colon = system: HT29 colon
UACC-257 melanoma = system: UACC-257 melanoma
NCI-H23 lung = system: NCI-H23 lung
RXF 393 renal = system: RXF 393 renal
DMS 273 small cell lung = system: DMS 273 small cell lung
DLD-1 colon = system: DLD-1 colon
U251 CNS = system: U251 CNS
UO-31 renal = system: UO-31 renal
NCI-H522 lung = system: NCI-H522 lung
HCC-2998 colon = system: HCC-2998 colon
786-0 renal = system: 786-0 renal
SW-620 colon = system: SW-620 colon
OVCAR-4 ovarian = system: OVCAR-4 ovarian
UACC-62 melanoma = system: UACC-62 melanoma
SF-295 CNS = system: SF-295 CNS
EKVX NSCLC = system: EKVX NSCLC
SK-OV-3 ovarian = system: SK-OV-3 ovarian
IGROV1 ovarian = system: IGROV1 ovarian
HL-60(TB) leukemia = system: HL-60(TB) leukemia
M14 melanoma = system: M14 melanoma
KM12 colon = system: KM12 colon
NCI-H226 lung = system: NCI-H226 lung
KM20L2 colon = system: KM20L2 colon
HCT-15 colon = system: HCT-15 colon
SR leukemia = system: SR leukemia
ACHN renal = system: ACHN renal
LXFL 529 NSCLC = system: LXFL 529 NSCLC
HCT-116 colon = system: HCT-116 colon
MALME-3M melanoma = system: MALME-3M melanoma
CCRF-CEM leukemia = system: CCRF-CEM leukemia
OVCAR-8 ovarian = system: OVCAR-8 ovarian
A498 renal = system: A498 renal
M19-MEL melanoma = system: M19-MEL melanoma
TK-10 renal = system: TK-10 renal
SF-268 CNS = system: SF-268 CNS
HOP-18 NSCLC = system: HOP-18 NSCLC
OVCAR-5 ovarian = system: OVCAR-5 ovarian
MOLT-4 leukemia = system: MOLT-4 leukemia
HOP-62 NSCLC = system: HOP-62 NSCLC
RPMI-8226 leukemia = system: RPMI-8226 leukemia
SF-539 CNS = system: SF-539 CNS
K-562 leukemia = system: K-562 leukemia
SK-MEL-28 melanoma = system: SK-MEL-28 melanoma
XF 498 CNS = system: XF 498 CNS
CAKI-1 renal = system: CAKI-1 renal
SNB-75 CNS = system: SNB-75 CNS
SNB-19 CNS = system: SNB-19 CNS
SN12C renal = system: SN12C renal

SMILES: CCCCNS(=O)(=O)c1ccc(-c2ccc3c(c2)-c2ccc(S(=O)(=O)NCCCC)cc2S3(=O)=O)cc1
- TGI (NCI-H460 lung): > 100 µM
- TGI (SK-MEL-2 melanoma): 87.9 µM
- TGI (SK-MEL-5 melanoma): 28.6 µM
- TGI (HOP-92 NSCLC): 41.5 µM
- TGI (A549 NSCLC): 57.3 µM
- TGI (OVCAR-3 ovarian): 76.2 µM
- TGI (LOX IMVI melanoma): 38 µM
- TGI (SNB-78 CNS): 33.4 µM
- TGI (COLO 205 colon): > 100 µM
- TGI (DMS 114 small cell lung): > 100 µM
- TGI (HT29 colon): > 100 µM
- TGI (UACC-257 melanoma): > 100 µM
- TGI (NCI-H23 lung): 43 µM
- TGI (RXF 393 renal): 30.6 µM
- TGI (DMS 273 small cell lung): > 100 µM
- TGI (DLD-1 colon): > 100 µM
- TGI (U251 CNS): 55.5 µM
- TGI (UO-31 renal): > 100 µM
- TGI (NCI-H522 lung): 66.2 µM
- TGI (HCC-2998 colon): > 100 µM
- TGI (786-0 renal): 27.9 µM
- TGI (SW-620 colon): > 100 µM
- TGI (OVCAR-4 ovarian): 15.4 µM
- TGI (UACC-62 melanoma): 34.3 µM
- TGI (SF-295 CNS): 45.1 µM
- TGI (EKVX NSCLC): > 100 µM
- TGI (SK-OV-3 ovarian): 45.5 µM
- TGI (IGROV1 ovarian): > 100 µM
- TGI (HL-60(TB) leukemia): > 100 µM
- TGI (M14 melanoma): 53.7 µM
- TGI (KM12 colon): > 100 µM
- TGI (NCI-H226 lung): 32 µM
- TGI (KM20L2 colon): 15.1 µM
- TGI (HCT-15 colon): > 100 µM
- TGI (SR leukemia): > 100 µM
- TGI (ACHN renal): > 100 µM
- TGI (LXFL 529 NSCLC): 33.9 µM
- TGI (HCT-116 colon): 54.9 µM
- TGI (MALME-3M melanoma): 49.2 µM
- TGI (CCRF-CEM leukemia): > 100 µM
- TGI (OVCAR-8 ovarian): 24.9 µM
- TGI (A498 renal): 26.6 µM
- TGI (M19-MEL melanoma): > 100 µM
- TGI (TK-10 renal): 83.2 µM
- TGI (SF-268 CNS): 31.3 µM
- TGI (HOP-18 NSCLC): 54 µM
- TGI (OVCAR-5 ovarian): > 100 µM
- TGI (MOLT-4 leukemia): > 100 µM
- TGI (HOP-62 NSCLC): 37.3 µM
- TGI (RPMI-8226 leukemia): > 100 µM
- TGI (SF-539 CNS): 27.4 µM
- TGI (K-562 leukemia): > 100 µM
- TGI (SK-MEL-28 melanoma): 29.7 µM
- TGI (XF 498 CNS): 23.9 µM

SMILES: O=C(c1ccccc1)c1nnn(Cc2ccccc2Cn2nnc(C(=O)c3ccccc3)c2C(=O)c2ccccc2)c1C(=O)c1ccccc1
- TGI (NCI-H460 lung): > 100 µM
- TGI (SK-MEL-2 melanoma): > 100 µM
- TGI (SK-MEL-5 melanoma): > 100 µM
- TGI (HOP-92 NSCLC): > 100 µM
- TGI (A549 NSCLC): > 100 µM
- TGI (OVCAR-3 ovarian): > 100 µM
- TGI (LOX IMVI melanoma): > 100 µM
- TGI (SNB-78 CNS): > 100 µM
- TGI (COLO 205 colon): > 100 µM
- TGI (DMS 114 small cell lung): > 100 µM
- TGI (HT29 colon): > 100 µM
- TGI (UACC-257 melanoma): > 100 µM
- TGI (NCI-H23 lung): > 100 µM
- TGI (DMS 273 small cell lung): > 100 µM
- TGI (CAKI-1 renal): > 100 µM
- TGI (DLD-1 colon): > 100 µM
- TGI (U251 CNS): > 100 µM
- TGI (UO-31 renal): > 100 µM
- TGI (NCI-H522 lung): > 100 µM
- TGI (HCC-2998 colon): > 100 µM
- TGI (786-0 renal): > 100 µM
- TGI (SW-620 colon): > 100 µM
- TGI (OVCAR-4 ovarian): > 100 µM
- TGI (UACC-62 melanoma): > 100 µM
- TGI (SF-295 CNS): > 100 µM
- TGI (EKVX NSCLC): > 100 µM
- TGI (SNB-75 CNS): > 100 µM
- TGI (SK-OV-3 ovarian): > 100 µM
- TGI (SNB-19 CNS): > 100 µM
- TGI (IGROV1 ovarian): > 100 µM
- TGI (HL-60(TB) leukemia): > 100 µM
- TGI (M14 melanoma): > 100 µM
- TGI (KM12 colon): > 100 µM
- TGI (SN12C renal): > 100 µM
- TGI (NCI-H226 lung): > 100 µM
- TGI (KM20L2 colon): > 100 µM
- TGI (HCT-15 colon): > 100 µM
- TGI (SR leukemia): > 100 µM
- TGI (ACHN renal): > 100 µM
- TGI (LXFL 529 NSCLC): > 100 µM
- TGI (HCT-116 colon): > 100 µM
- TGI (MALME-3M melanoma): > 100 µM
- TGI (CCRF-CEM leukemia): > 100 µM
- TGI (OVCAR-8 ovarian): > 100 µM
- TGI (A498 renal): > 100 µM
- TGI (M19-MEL melanoma): > 100 µM
- TGI (TK-10 renal): > 100 µM
- TGI (SF-268 CNS): > 100 µM
- TGI (HOP-18 NSCLC): > 100 µM
- TGI (OVCAR-5 ovarian): > 100 µM
- TGI (MOLT-4 leukemia): > 100 µM
- TGI (HOP-62 NSCLC): > 100 µM
- TGI (RPMI-8226 leukemia): > 100 µM
- TGI (SF-539 CNS): > 100 µM
- TGI (K-562 leukemia): > 100 µM
- TGI (SK-MEL-28 melanoma): > 100 µM
